Assay results: patent US8227616B2, “Cyanopyridine antibacterial agents and methods of use thereof” (Wisconsin Alumni Research Foundation, priority 2006, dated 2012)
Values after ≈ are worked out from the molar mass of the structure shown.

Experiments:
S. aureus ATCC 10390 [1] = assay: Estimated MIC, solution-phase microdilution absorbance assay with crude macroarray spot stock solutions; assay type: cell-based, Staphylococcus aureus; conditions: for MIC: Staphylococcus aureus, ATCC10390, 12 h; for inhibition of S. aureus at the 12.5 μM level: macroarray stock solutions diluted four fold
Method: Spots from a new 69 member chalcone macroarray as well as the three heterocyclic macroarrays prepared earlier were punched out, cleaved, and eluted with acetonitrile. The resulting solutions were concentrated to a residue that was taken up in DMSO to form 2 mM stock solutions.
From the stock solutions, microdilution assays in a 96 well plate starting at 50 μM were performed in quadruplicate. Each well contained 5 μL of the stock solution as well as 195 μL of a S. aureus culture. The turbidity of each well was measured after incubating 12 hours using a standard plate reader. Active compounds can be further diluted and the assay repeated.
To acquire more quantitative antibacterial activity data about our compounds and verify our on-support assay results, we performed solution-phase absorbance assays that provided estimates of the minimum inhibitory concentration (MIC) of each macroarray member against S. aureus. Stock solutions (ca. 2 mM) were generated by cleaving and eluting 198 individual compounds from chalcone (3) and heterocyclic macroarrays (5, 7, and 8). […] The good overall purities of the crude macroarray compounds allowed for reasonable estimations of MICs.
(§1) For estimated MIC determination, DMSO was added to the dried compound residue obtained from a single spot to afford ca. 100 μL of a 2 mM stock solution. Aliquots (5 μL) of these solutions were added to a 96-well plate, followed by 195 μL of diluted S. aureus 10390 (10^6 CFUs/mL) to yield ca. 50 μM final concentrations. The plates were swirled for 1 h to ensure compound dissolution, incubated for 12 h at 37° C., and the absorbance at 595 nm was recorded using a plate reader. […] Actual MIC values were determined for lead compounds resynthesized in solution using an analogous procedure with solutions of known concentration (see).
Preparation of spot samples and controls. An aliquot of DMSO (ca. 100 μL depending on the loading of the parent hydroxyacetophenone) was added to the dried compound residue obtained after TFA cleavage and elution from a single spot. This afforded a 2.0 mM “spot stock” solution for each spot. A small aliquot of each “spot stock” solution was saved for subsequent LC-MS analysis.
For estimated MIC screens, 5.0 μL portions of the “spot stock” solutions were added to the appropriate wells in a sterile, polystyrene 96-well plate to yield ca. 50 μM solutions (dependent on the initial loading of hydroxyacetopheneone and compound purity). To the positive and negative control wells, 5.0 μL of DMSO were added (positive controls contained bacteria but no compound, while negative controls had neither compound nor bacteria). All estimated MIC assays were performed in quadruplicate. Note: the MIC value is defined as the lowest concentration where no bacterial growth occurs.
Representative estimated MIC assay procedure. This assay procedure is based in part on the method reported by Strøm et al.^xiii A 400 μL portion of overnight S. aureus 10390 culture was diluted with 100 mL of sterile LB broth to give ca. 10^6 CFUs per mL. Aliquots (195 μL) of this solution were added to all of the wells in a sterile 96-well plate (except for the negative control wells; 195 μL of sterile LB broth were added to these wells). The plates were placed on an orbital shaker table and gently swirled for 1 h to ensure compound dissolution, and then incubated (without shaking) for 12 h at 37° C. The absorbance at 595 nm was recorded using a plate reader.
The original “spot stock” solutions of these compounds were diluted with DMSO to give ca. 25 and 13 μM final concentrations and tested for inhibitory activities using the procedure described above.

S. aureus ATCC 10390 [2] = assay: MIC determination with authentic compounds resynthesized in solution; assay type: cell-based, Staphylococcus aureus; set-up: MIC against S. aureus 10390: unit: uM; conditions: for MIC: Staphylococcus aureus, ATCC10390
Method: as §1
(§2) Dose response growth inhibition curves were determined for each active compound (resynthesized in solution) against S. aureus 10390 (SA) and methicillin-resistant S. aureus 33591 (MRSA). […] MIC assays were performed in quadruplicate.

[3] = test system: Methicillin-resistant S. aureus ATCC 33591 (MRSA); assay: as above; assay type: cell-based; conditions: Staphylococcus aureus; Table 3; authentic sample, only trans isomers of chalcones; error reflects step size in the serial dilutions
Method: as §1, §2

S. aureus ATCC 10390 [4] = assay: Kirby-Bauer disk diffusion assay on compound spots from cleaved macroarray; assay type: cell-based, Staphylococcus aureus; conditions: loadings 30 μg/spot, 18 h incubation
Method: While the heterocyclic libraries were being synthesized, the chalcone macroarrays were analyzed using various direct assay techniques such as the Kirby-Bauer disk diffusion assay (FIG. 2E). Bauer, A. W.; Kirby, […].; Turck, M. Technical Bulletin of the Registry of Medical Technologists 1966, 36, 49-52. For this assay, the macroarray members are punched out from the membrane, cleaved from the support with TFA vapor, neutralized with ammonia vapor, and then placed on an agar bed inoculated with S. aureus. After incubating overnight, different diameters of zones of inhibition are measured as a factor of potency as well as solubility in the medium. Ammonia vapor neutralization was key in the disk diffusion assay, otherwise residual TFA vapor created a false positive signature. However, in this method, macroarrays have to be made in triplicate one for a replicate and one for compound characterization. We first evaluated test chalcone macroarrays (3) in antibacterial assays against S. aureus. Because the macroarrays were prepared on cellulose filter paper, we had convenient access to the compounds in disk form for standard disk diffusion assays. Compound spots were punched out of the macroarrays, subjected to vapor phase cleavage with acid (TFA), and neutralized (NH3) to afford disks containing ca. 30 μg of adsorbed compound [8]. These disks were manually placed on lawns of S. aureus, and zones of inhibition were measured after an 18 h incubation period. […] However, this antibacterial assay format had drawbacks: (1) the entire sample of compound was consumed during the assay, and thus replicate arrays needed to be synthesized to confirm activity, and (2) manipulating large numbers of compound disks was relatively labor intensive. Compound spots were cleaved with TFA and neutralized with NH3 as described herein. […] Compound spots were placed onto the agar, the plate was incubated at 37° C. for 18 h, and the diameters of the zones of inhibition were measured. […] Compound spots were subjected to the TFA cleavage conditions described above. The spots were next subjected to NH3 vapor to neutralize any remaining TFA. […] Vials containing the spots (or intact macroarrays) were placed inside a small evaporating dish, and this was placed into the NH4OH solution. The Pyrex dish was covered, and NH3 vapor was allowed to slowly diffuse into the vials. After 1 h, the vials were removed from the NH3 chamber, and the spots were allowed to stand open in a fume hood for at least 15 min to vent prior to analysis in the following assays. This afforded dry, paper disks containing adsorbed compound. […] The plates were removed, and the diameters of the zones of inhibition were measured in mm using a ruler (see FIG. 1A).

K. pneumoniae = assay: Agar overlay TTC assay, compound overlays; assay type: cell-based, Klebsiella pneumoniae; conditions: 30 nanomole aliquots of purified compound on filter paper
K. pneumoniae ATCC 4352 = assay: MIC determination, species selectivity; assay type: cell-based; conditions: Klebsiella pneumoniae, ATCC4352; authentic sample, only trans isomers of chalcones; error reflects step size
Method: (§3) Each compound from Table 3 was tested for inhibitory activity at 2.5, 5, 7.5, 10, 15, 20, 25, and 30 μM in the susceptible overlaid strains: B. subtilis ATCC 6633, S. epidermidis ATCC 12228, and K. pneumoniae ATCC 4352. MIC assays were run in quadruplicate as described above (with shaking).

[5] = test system: S. epidermidis ATCC 12228; assay: MIC determination, species selectivity; assay type: cell-based; conditions: Staphylococcus epidermidis, ATCC12228; authentic sample, only trans isomers of chalcones; error reflects step size
Method: as §3

[6] = test system: B. subtilis subsp. spizizenii ATCC 6633; assay: MIC determination, species selectivity; assay type: cell-based; conditions: Bacillus subtilis, ATCC6633; authentic sample, only trans isomers of chalcones; error reflects step size
Method: as §3

S. aureus 10390 = assay: Time-dependent bacterial killing curves; assay type: cell-based, Staphylococcus aureus; conditions: 0.5x to 4x MIC, 0-6 h
Method: Solutions of compounds 4Bv, 6Ao, 9Cf, and linezolid were prepared in DMSO over a range of concentrations. […] At 0, 2, 4, and 6 h time points, […] samples were withdrawn from the test tubes, diluted into 10 mL of LB broth in a test tube, and swabbed in duplicate on agar plates to determine CFUs. These plates were incubated at 37° C. for 24 h, after which time the colonies were counted visually. […] Instead, 200 μL was removed from the test tube and directly swabbed on the agar plates.

[7] = Table 2, serial dilution of stock solutions obtained by SPOT-synthesis, read-out: estimated MIC range
[8] = Table 3, serial dilution of spot stock solutions of crude macroarray compounds, read-out: S. aureus Estimated MIC range
[9] = Table 2, authentic sample synthesized according to standard techniques, read-out: observed MIC
[10] = Table 3, authentic sample, only trans isomers of chalcones, error reflects step size in the serial dilutions, read-out: S. aureus MIC

MIC (S. aureus ATCC 10390 [1]; [7]) [µM] | MIC (S. aureus ATCC 10390 [1]; [8]) [µM] | MIC (S. aureus ATCC 10390 [2]; [9]) [µM] | MIC (S. aureus ATCC 10390 [2]; [10]) [µM] | MIC [3] [µM] | MIC [5] [µM] | MIC [6] [µM] | SMILES | Zones of inhibition (S. aureus ATCC 10390 [4]) [mm] | susceptibility in agar overlay TTC assay (K. pneumoniae) | MIC (K. pneumoniae ATCC 4352) [µM] | inhibition of S. aureus at the 12.5 μM level (S. aureus ATCC 10390 [1]) | mode of activity (bacteriostatic or bactericidal) (S. aureus 10390) | MIC against S. aureus 10390 (S. aureus ATCC 10390 [2]; values quoted in killing-curve protocol, unit not given)
6.25 to 12.5 (≈ 2.22 to 4.44 µg/mL) | < 12.5 | 10 ± 1 (≈ 3.55 µg/mL) | 11.6 ± 0.9 (≈ 4.12 µg/mL) | 13.4 ± 0.9 (≈ 4.76 µg/mL) | 17.5 ± 2.5 (≈ 6.22 µg/mL) | 22.5 ± 2.5 (≈ 7.99 µg/mL) | Cc1nc(-c2cccc(O)c2)cc(-c2ccc(Cl)cc2Cl)c1C#N [Compound 6Bt, 4-(2,4-dichlorophenyl)-6-(3-hydroxyphenyl)-2-methyl-3-cyanopyridine] | – | – | – | complete inhibition | – | –
6.25 to 12.5 (≈ 2.44 to 4.87 µg/mL) | < 12.5 | 6 ± 0.5 (≈ 2.34 µg/mL) | 7.5 ± 1.2 (≈ 2.92 µg/mL) | 7.5 ± 1.2 (≈ 2.92 µg/mL) | 6.3 ± 1.2 (≈ 2.45 µg/mL) | 3.8 ± 1.2 (≈ 1.48 µg/mL) | Cc1nc(-c2ccc(O)cc2)cc(-c2c(Cl)ccc(Cl)c2Cl)c1C#N [Compound 6Ao, 6-(4-hydroxyphenyl)-2-methyl-4-(2,3,6-trichlorophenyl)-3-cyanopyridine] | – | – | – | complete inhibition | bactericidal | ~7.5

The next lines start with the molecule.

SMILES | MIC (S. aureus ATCC 10390 [1]; [7]) [µM] | MIC (S. aureus ATCC 10390 [1]; [8]) [µM] | MIC (S. aureus ATCC 10390 [2]; [9]) [µM] | MIC (S. aureus ATCC 10390 [2]; [10]) [µM] | MIC [3] [µM] | MIC [5] [µM] | MIC [6] [µM] | Zones of inhibition (S. aureus ATCC 10390 [4]) [mm] | susceptibility in agar overlay TTC assay (K. pneumoniae) | MIC (K. pneumoniae ATCC 4352) [µM] | inhibition of S. aureus at the 12.5 μM level (S. aureus ATCC 10390 [1]) | mode of activity (bacteriostatic or bactericidal) (S. aureus 10390) | MIC against S. aureus 10390 (S. aureus ATCC 10390 [2]; values quoted in killing-curve protocol, unit not given)
COc1cc(C(=O)/C=C/c2ccc(Br)cc2)ccc1O [Compound 4Cf, 4-bromo-4′-hydroxy-3′-methoxy-chalcone] | > 50 | > 50 | > 250 | > 250 | > 250 | – | – | < 1 | – | – | – | – | –
O=C(/C=C/c1ccc(Cl)cc1Cl)c1ccc(O)cc1 [Compound 4At, 2,4-dichloro-4′-hydroxychalcone] | 25 to 50 (≈ 7.33 to 14.7 µg/mL) | 25 to 50 (≈ 7.33 to 14.7 µg/mL) | 18.8 ± 1.2 (≈ 5.51 µg/mL) | 21.2 ± 1.2 (≈ 6.21 µg/mL) | 18.7 ± 1.2 (≈ 5.48 µg/mL) | 27.5 ± 2.5 (≈ 8.06 µg/mL) | 27.5 ± 2.5 (≈ 8.06 µg/mL) | – | weakly susceptible | > 250 | – | – | –
CN[C@H](CC(C)C)C(=O)N[C@H]1C(=O)N[C@@H](CC(N)=O)C(=O)N[C@H]2C(=O)N[C@H]3C(=O)N[C@H](C(=O)N[C@H](C(=O)O)c4cc(O)cc(O)c4-c4cc3ccc4O)[C@H](O)c3ccc(c(Cl)c3)Oc3cc2cc(c3O[C@@H]2O[C@H](CO)[C@@H](O)[C@H](O)[C@H]2O[C@H]2C[C@](C)(N)[C@H](O)[C@H](C)O2)Oc2ccc(cc2Cl)[C@H]1O [vancomycin, reference compound] | – | – | – | – | – | – | – | 20 | – | – | – | – | –
